Results published in ChEMBL document CHEMBL1201862, “PubChem BioAssay data set” (2004).
Active and inactive are the calls of the source.

Key:
[1] = target: Induced myeloid leukemia cell differentiation protein Mcl-1 (Homo sapiens, UniProt Q07820); assay type: functional
[2] = microbe, parasite or virus in culture; assay type: functional; conditions: Mycobacterium tuberculosis
[3] = viability of PTEN-deleted HCT116 cells – cell-based, HCT116 PTEN knockout, dose response (AID 1047); assay type: functional;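 note: HCT116 colon tumor cells with PTEN knocked out; cells exposed to compound for 60 hours before readout; potency for loss of cell viability measured by luminescence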
[4] = viability of HCT116 lacking mutant beta-catenin – cell-based, human colon tumor, dose response (AID 1045); assay type: functional;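 note: HCT116 colon tumor cells with beta catenin knocked out; cells exposed to compound for 60 hours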
Estrogen receptor = target: T1, Estrogen receptor (Homo sapiens, UniProt P03372);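 note: potency for inhibiting coactivator peptide recruitment to the receptor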
T1 sequence (P03372 whole entry): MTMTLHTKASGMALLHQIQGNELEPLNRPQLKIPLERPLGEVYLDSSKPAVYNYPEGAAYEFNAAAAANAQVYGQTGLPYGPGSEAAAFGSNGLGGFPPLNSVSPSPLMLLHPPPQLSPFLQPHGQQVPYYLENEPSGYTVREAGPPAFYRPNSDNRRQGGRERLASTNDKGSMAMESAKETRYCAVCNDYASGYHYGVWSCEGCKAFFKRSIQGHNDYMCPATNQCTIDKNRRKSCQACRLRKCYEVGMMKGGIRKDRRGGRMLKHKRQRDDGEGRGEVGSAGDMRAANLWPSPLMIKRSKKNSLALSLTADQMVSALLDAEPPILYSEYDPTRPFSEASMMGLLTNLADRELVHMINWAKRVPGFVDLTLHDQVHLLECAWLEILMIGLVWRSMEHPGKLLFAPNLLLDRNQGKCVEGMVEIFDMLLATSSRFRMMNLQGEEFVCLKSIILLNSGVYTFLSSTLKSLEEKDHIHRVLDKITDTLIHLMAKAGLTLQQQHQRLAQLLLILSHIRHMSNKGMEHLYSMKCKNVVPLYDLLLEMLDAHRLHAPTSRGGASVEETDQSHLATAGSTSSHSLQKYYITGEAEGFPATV

cells = assay type: functional
[5] = HEK-293T cell viability reduction – luminescence, B-cell screen hits, cytotoxicity control for BCR NF-kB inhibitor project, dose response (AID 489021); assay type: functional, cell-based;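 note: HEK-293T cells carrying an NF-kB luciferase reporter; cells exposed to compound for about 14 hours before viability readout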
[6] = target: Luciferin 4-monooxygenase (Photinus pyralis, UniProt P08659); assay: inhibition of purified Photinus pyralis luciferase – biochemical, luminescence, dose response (AID 1891)
Chain of Luciferin 4-monooxygenase (P08659 whole entry): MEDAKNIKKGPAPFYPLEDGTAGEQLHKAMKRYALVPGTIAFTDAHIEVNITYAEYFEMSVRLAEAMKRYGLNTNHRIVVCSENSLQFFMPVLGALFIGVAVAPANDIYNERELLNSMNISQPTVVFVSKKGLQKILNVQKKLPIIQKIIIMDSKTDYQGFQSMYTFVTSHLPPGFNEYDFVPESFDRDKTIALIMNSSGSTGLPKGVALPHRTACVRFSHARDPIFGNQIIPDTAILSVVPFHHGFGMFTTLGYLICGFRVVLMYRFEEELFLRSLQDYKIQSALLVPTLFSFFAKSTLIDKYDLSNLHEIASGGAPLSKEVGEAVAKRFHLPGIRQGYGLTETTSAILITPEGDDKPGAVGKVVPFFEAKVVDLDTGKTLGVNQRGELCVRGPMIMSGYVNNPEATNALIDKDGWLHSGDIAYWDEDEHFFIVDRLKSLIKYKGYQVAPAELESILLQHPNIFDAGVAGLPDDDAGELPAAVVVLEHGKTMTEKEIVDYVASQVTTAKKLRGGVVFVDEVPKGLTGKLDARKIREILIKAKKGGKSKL

[7] = Luminescence Cell-Based Dose Confirmation HTS to Identify Inhibitors of Platelet Dense Granule Release. [Related pubchem assays: 1663 (Primary HTS), 1678 (Summary of Project)]; assay type: functional
[8] = viability loss in THP-1 monocytes – THP-1 cells, cytotoxicity control for Vif-APOBEC3G degradation inhibitor project, dose response (AID 1117359); assay type: functional; conditions: THP-1
[9] = target: T2, Carboxy-terminal domain RNA polymerase II polypeptide A small phosphatase 1 (Homo sapiens, UniProt Q9GZU7); assay: CTDSP1 inhibitors, concentration-response, biochemical, absorbance readout, ultra-high-throughput screen actives (AID 540297); assay type: functional
T2 sequence (Q9GZU7 whole entry): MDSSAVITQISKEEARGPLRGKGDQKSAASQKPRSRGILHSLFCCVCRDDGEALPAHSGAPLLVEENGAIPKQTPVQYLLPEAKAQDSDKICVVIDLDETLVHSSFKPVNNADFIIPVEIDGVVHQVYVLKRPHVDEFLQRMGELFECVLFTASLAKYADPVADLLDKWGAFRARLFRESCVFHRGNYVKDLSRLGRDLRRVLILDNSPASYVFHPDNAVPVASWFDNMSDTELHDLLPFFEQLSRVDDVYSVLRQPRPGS

Leucine aminopeptidase = target: T3, Leucine aminopeptidase (Plasmodium falciparum 3D7, UniProt Q8IL11); assay: P. falciparum M17LAP inhibitors, primary screen, biochemical, fluorogenic H-Leu-NHMec substrate, 1536-well (AID 1619); assay type: functional
T3 sequence (Q8IL11 whole entry): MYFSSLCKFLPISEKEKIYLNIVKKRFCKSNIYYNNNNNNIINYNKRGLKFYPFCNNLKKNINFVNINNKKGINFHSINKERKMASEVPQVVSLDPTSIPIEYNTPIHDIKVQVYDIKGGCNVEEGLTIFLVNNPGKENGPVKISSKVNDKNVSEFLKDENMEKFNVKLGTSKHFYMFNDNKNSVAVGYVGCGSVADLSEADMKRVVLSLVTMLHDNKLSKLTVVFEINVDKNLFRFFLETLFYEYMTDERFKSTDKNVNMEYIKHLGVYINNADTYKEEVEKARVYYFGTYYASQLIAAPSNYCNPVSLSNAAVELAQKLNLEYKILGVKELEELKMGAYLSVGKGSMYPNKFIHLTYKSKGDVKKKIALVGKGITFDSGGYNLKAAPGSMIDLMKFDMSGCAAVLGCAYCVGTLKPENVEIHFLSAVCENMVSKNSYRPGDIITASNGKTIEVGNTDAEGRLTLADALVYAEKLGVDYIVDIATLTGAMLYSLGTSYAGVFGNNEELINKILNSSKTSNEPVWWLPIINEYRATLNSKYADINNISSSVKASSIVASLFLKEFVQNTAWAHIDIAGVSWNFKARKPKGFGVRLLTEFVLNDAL

[10] = Luminescence Cell-Based Dose Retest to Confirm Inhibitors of Cancer Stem Cells. [Related pubchem assays (depositor defined):AID2717, AID2721]; assay type: functional; conditions: Homo sapiens
Cytochrome P450 1A2 = target: T4, Cytochrome P450 1A2 (Homo sapiens, UniProt P05177);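 note: PubChem cytochrome P450 panel assay, CYP1A2 panel member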
T4 sequence (P05177 whole entry): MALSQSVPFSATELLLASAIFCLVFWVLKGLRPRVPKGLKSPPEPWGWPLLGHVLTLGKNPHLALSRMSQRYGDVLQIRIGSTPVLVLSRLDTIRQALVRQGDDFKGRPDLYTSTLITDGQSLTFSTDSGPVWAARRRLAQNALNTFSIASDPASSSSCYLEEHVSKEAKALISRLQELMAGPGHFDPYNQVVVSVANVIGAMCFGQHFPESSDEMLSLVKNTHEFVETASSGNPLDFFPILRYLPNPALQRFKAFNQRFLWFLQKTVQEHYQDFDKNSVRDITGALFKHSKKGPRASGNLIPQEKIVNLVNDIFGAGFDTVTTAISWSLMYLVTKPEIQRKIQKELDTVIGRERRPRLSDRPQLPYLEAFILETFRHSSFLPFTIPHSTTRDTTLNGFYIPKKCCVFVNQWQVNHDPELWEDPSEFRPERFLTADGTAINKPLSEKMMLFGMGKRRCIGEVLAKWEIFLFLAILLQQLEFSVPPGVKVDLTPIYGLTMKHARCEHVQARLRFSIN

Cytochrome P450 2C9 = Cytochrome P450 2C9 (Homo sapiens, UniProt P11712)
Chain of Cytochrome P450 2C9 (P11712 whole entry): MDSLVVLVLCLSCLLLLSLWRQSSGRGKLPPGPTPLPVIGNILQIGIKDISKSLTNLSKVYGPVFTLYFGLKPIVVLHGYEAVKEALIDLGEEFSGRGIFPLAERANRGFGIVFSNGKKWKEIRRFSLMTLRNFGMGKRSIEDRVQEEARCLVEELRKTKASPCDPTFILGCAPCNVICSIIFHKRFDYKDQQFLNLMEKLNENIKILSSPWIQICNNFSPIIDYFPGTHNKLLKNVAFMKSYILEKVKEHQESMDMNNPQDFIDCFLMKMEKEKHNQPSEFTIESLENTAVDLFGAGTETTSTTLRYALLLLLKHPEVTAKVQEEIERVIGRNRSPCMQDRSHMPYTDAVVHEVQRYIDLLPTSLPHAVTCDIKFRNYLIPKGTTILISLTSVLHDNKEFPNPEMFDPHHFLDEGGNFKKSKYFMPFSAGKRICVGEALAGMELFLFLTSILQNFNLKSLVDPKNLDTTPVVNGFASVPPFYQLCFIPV

[11] = P. falciparum Dd2 growth inhibitors, dose response, SYBR Green, cherry-picked samples (AID 1159567); assay type: functional, cell-based
[12] = luciferase reporter signal suppression in cells – H4 neuroglioma cells, luminescence, dose response (AID 1990); assay type: functional, cell-based
[13] = Luminescence Cell-Based Dose Response HTS to Identify Inhibitors of 5'UTR Stem-Loop Driven Prion Protein mRNA Translation in H4 Neuroglioblastoma Cells. [Related pubchem assays: 1827 (Project Summary), 1813 (Primary HTS)]; assay type: functional
[14] = alpha-synuclein stem-loop luciferase translation blockers – H4 neuroglioma cells, luminescence, confirmation (AID 1988); assay type: functional, cell-based
Cytochrome P450 2D6 = Cytochrome P450 2D6 (Homo sapiens, UniProt P10635);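 note: CYP2D6 member of a cytochrome P450 panel assay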
Chain of Cytochrome P450 2D6 (P10635 whole entry): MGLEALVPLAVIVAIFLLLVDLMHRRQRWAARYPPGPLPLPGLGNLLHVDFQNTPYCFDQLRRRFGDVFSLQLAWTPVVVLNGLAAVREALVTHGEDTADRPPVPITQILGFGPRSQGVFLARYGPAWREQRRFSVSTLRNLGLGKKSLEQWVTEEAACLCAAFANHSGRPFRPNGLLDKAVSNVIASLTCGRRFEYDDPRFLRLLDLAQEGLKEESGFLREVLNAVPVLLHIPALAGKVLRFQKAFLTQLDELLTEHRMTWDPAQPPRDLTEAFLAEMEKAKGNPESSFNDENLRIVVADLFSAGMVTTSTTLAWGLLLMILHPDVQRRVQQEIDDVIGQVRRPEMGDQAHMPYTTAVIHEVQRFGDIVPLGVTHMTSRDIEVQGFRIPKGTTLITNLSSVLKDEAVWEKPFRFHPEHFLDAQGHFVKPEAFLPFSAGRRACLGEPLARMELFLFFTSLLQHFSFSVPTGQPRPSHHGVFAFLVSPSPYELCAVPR

Cytochrome P450 3A4 = Cytochrome P450 3A4 (Homo sapiens, UniProt P08684);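 note: CYP3A4 tested as one member of a cytochrome P450 panel screen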
Chain of Cytochrome P450 3A4 (P08684 whole entry): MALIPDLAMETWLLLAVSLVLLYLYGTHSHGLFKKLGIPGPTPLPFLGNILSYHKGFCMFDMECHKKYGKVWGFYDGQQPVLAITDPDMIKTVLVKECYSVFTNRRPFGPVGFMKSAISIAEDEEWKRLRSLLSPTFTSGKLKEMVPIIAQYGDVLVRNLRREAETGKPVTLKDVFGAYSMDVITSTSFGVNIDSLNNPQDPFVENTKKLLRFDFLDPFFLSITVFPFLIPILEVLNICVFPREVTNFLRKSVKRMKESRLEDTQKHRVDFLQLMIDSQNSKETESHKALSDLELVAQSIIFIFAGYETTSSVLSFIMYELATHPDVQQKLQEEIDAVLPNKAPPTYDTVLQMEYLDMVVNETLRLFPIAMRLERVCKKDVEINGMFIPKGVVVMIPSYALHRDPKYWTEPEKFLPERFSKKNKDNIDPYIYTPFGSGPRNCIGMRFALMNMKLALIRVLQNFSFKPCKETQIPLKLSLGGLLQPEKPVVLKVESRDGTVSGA

[15] = target: T5, Microphthalmia-associated transcription factor (Homo sapiens, UniProt O75030); assay: reducers of TRPM1 reporter luminescence, concentration series – cell-based, SK-MEL-5, cherry-picked, set 3, MITF inhibitor project, dose response (AID 493073); assay type: functional;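 note: SK-MEL-5 melanoma cells with luciferase driven by the MITF target TRPM1 promoter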
T5 sequence (O75030 whole entry): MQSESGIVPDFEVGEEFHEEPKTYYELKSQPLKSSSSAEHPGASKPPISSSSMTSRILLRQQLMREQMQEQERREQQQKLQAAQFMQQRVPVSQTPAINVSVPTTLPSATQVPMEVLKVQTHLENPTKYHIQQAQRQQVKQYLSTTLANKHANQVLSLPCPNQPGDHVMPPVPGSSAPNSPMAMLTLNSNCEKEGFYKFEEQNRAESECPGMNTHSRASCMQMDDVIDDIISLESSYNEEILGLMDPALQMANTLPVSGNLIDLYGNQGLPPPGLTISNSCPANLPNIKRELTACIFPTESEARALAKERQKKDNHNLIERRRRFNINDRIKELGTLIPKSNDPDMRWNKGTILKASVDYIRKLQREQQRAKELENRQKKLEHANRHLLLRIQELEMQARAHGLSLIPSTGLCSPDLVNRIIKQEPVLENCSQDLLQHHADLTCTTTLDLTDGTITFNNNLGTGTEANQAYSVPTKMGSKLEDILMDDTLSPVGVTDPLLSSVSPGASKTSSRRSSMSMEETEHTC

Chain of Induced myeloid leukemia cell differentiation protein Mcl-1 (Q07820 whole entry): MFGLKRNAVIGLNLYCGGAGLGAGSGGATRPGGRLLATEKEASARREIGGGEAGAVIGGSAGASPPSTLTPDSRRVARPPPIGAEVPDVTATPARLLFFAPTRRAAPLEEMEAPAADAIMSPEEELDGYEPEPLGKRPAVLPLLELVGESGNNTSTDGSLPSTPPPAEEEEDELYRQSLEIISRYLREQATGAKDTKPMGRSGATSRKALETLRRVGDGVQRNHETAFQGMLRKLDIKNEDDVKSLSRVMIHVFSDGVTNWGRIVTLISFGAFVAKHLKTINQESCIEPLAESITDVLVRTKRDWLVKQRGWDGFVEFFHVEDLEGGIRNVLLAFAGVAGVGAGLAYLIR

Compound: Cc1ccc(-n2nc(C)cc2NC(=O)COc2cc(C)cc3oc(=O)c4c(c23)CCC4)cc1
- IC50 [1]: < 0.4 µM (not active)

Compound: CCOC(=O)N1CCc2c(sc(NC(=O)c3ccc(Cl)s3)c2C(N)=O)C1
- CC50 [2]: 17.3 µM (active)
- EC50 [3]: 15.7 µM (active)
- EC50 [4]: 19.4 µM (active)

Compound: NC(=S)n1[nH]c(-c2ccc([N+](=O)[O-])cc2)c(/N=N/c2ccc(O)cc2)c1=O
- IC50 (Estrogen receptor): 11 µM (active)
- IC50 [1]: 3.47 µM (active)
- IC50 (cells): 49.6 µM (active)

Compound: Cc1ccc(-c2nn3c(C)nnc3c3ccccc23)cc1S(=O)(=O)NC(C)(C)CO
- IC50 [5]: > 80 µM (inactive)

Compound: Cc1ccc2sc(NC(=O)C3CC3)nc2c1C
- EC50 [6]: > 112 µM (not active)
- EC50 [7]: > 112 µM (not active)

Compound: COc1ccc(NC(=O)/C(C#N)=C\c2ccc(Br)o2)cc1
- CC50 [8]: 3.4 µM (active)

Compound: Cc1nnc(SCC(=O)NC(=O)NCc2ccco2)n1Cc1ccccc1
- IC50 (Estrogen receptor): < 1.56 µM (active)
- IC50 [9]: 5.15 µM (active)

Compound: O=C1NC(=O)N(Cc2ccco2)C(=O)/C1=C/NC1CC1
- EC50 [6]: > 112 µM (not active)
- EC50 [7]: > 112 µM (not active)

Compound: Oc1ccc(C2c3sc(O)nc3SC3C4CCC(C4)C23)cc1 (stereo unspecified)
- IC50 (Estrogen receptor): > 50 µM (not active)

Compound: O=C1NC(=O)N(Cc2ccccc2)C(=O)/C1=C\c1ccco1
- IC50 (Leucine aminopeptidase): 62.3 µM (active)

Compound: CCOc1c(Br)cc(CNc2nc[nH]n2)cc1OC
- IC50 (Leucine aminopeptidase): 22.7 µM (active)

Compound: COc1cccc(C(c2sc3nc(C)nn3c2O)N2CCN(c3ccccc3F)CC2)c1 (stereo unspecified)
- EC50 [6]: > 112 µM (not active)
- EC50 [7]: > 112 µM (not active)

Compound: Cc1ccc(-c2cc(-c3ccccc3C)[nH]n2)c(O)c1
- CC50 [2]: > 40 µM (active)
- AC50 [10]: 7.98 µM (active)

Compound: CCOC(=O)c1c(-c2ccc(C)o2)csc1N
- EC50 [6]: > 112 µM (not active)
- EC50 [7]: > 112 µM (not active)

Compound: N[C@@H](Cc1cc(I)c(Oc2ccc(O)c(I)c2)c(I)c1)C(=O)O [LIOTHYRONINE SODIUM]
- IC50 [1]: 14.7 µM (active)

Compound: Cc1ccc(-c2c(C#N)c(N)n(-c3ccccc3)c(=O)c2C#N)cc1
- EC50 [6]: > 112 µM (not active)
- EC50 [7]: 3.25 µM (active)
- AC50 (Cytochrome P450 1A2): 11.2 µM (inconclusive)
- AC50 (Cytochrome P450 2C9): 7.94 µM (inconclusive)

Compound: COC(=O)c1cc(NC(=O)Cn2c(=O)cnc3ccccc32)cc(C(=O)OC)c1
- IC50 (Estrogen receptor): > 50 µM (not active)

Compound: FC(F)(F)c1cccc(CN2[C@@H]3CNC[C@H]2[C@@H]3c2ccc(-c3cccnc3)cc2)c1
- AC50 [11]: 4.42 µM (active)

Compound: COc1cccc(NC(=O)N2CC(=O)N3[C@H](CO)[C@@H](c4ccc(C#CCC5CCCC5)cc4)[C@H]3C2)c1
- AC50 [11]: 8.6 µM (active)

Compound: O=C(NCCc1ccc(Cl)cc1)c1ccc(C[S+]([O-])Cc2ccc(Cl)cc2)o1 (stereo unspecified)
- CC50 [2]: > 40 µM (active)

Compound: COc1ccc(S(=O)(=O)NCC(c2cccnc2)N2CCN(C)CC2)cc1C (stereo unspecified)
- EC50 [6]: > 112 µM (not active)
- EC50 [7]: > 112 µM (not active)

Compound: CC1(C)Cc2c(sc3c4nnnn4c4nnnn4c23)CO1
- IC50 (Estrogen receptor): 4.11 µM (active)

Compound: Cc1nc2cc(-c3ccccc3)nn2c(C)c1CCC(=O)N1CCC2(CC1)OCCO2
- EC50 [12]: < 0.1 µM (active)
- EC50 [13]: 14.6 µM (active)
- EC50 [14]: 0.259 µM (active)
- IC50 [5]: > 80 µM (inactive)

Compound: NCCc1c[nH]c2ccccc12 [TRYPTAMINE]
- CC50 [8]: > 40 µM (active)
- AC50 (Cytochrome P450 2D6): 31.6 µM (inconclusive)
- AC50 (Cytochrome P450 3A4): inconclusive

Compound: COc1ccc(-c2ccc(C)cc2)cc1[C@H]1[C@H]2C=CC[C@@H](C)[C@@H]2C(=O)N1Cc1ccccc1
- IC50 [5]: > 80 µM (inactive)

Compound: O=C(CCl)N1CCN(S(=O)(=O)c2ccc3c(c2)CCC3)CC1
- AC50 [15]: 20.7 µM (active)
- IC50 [5]: > 80 µM (inactive)

Compound: CCOC(=O)C1CCN(c2ncnc3c2cnn3-c2ccc(OC)cc2)CC1
- IC50 [5]: > 80 µM (inactive)

Compound: Oc1nnc(Cc2ncc(C(F)(F)F)cc2Cl)c2ccccc12
- CC50 [8]: > 40 µM (active)

Compound: CN1CCN(c2cc(-c3ccccc3)nc3cc(-c4ccc(F)cc4)nn23)CC1
- CC50 [2]: 11.7 µM (active)
- EC50 [3]: 10.6 µM (active)
- EC50 [4]: 9.14 µM (active)
